# Source: publication PMC6009965, “α-Glucosidase inhibition by flavonoids: an in vitro and in silico structure–activity relationship study” (Journal of Enzyme Inhibition and Medicinal Chemistry, 2017)
# Like-named read-outs stand apart in the source and are kept apart here.
# Legend:
# α-glucosidase = settings: cited from earlier work; for Activity against α-glucosidase catalytic activity: ref Gao et al. 27
# yeast α-glucosidase = target: T1, yeast α-glucosidase (Saccharomyces cerevisiae, UniProt P53341); test: Inhibitory kinetic analysis (Michaelis–Menten, Lineweaver–Burk plots); type: biochemical; settings: for Type of inhibition: pNPG 300, 600 and 1200 μM
# T1 construct: purchased Sigma-Aldrich Co. LLC (St. Louis, MO)
# Experimental: Briefly, the enzyme (0.05 U/mL), dissolved in 100 mM phosphate buffer (pH 6.8), was pre-incubated at 37 °C with the above mentioned flavonoids in a 96-well plate, for 5 min. In sequence, pNPG was added (300, 600 and 1200 μM) and incubated in the reaction mixture at 37 °C for 30 min.
# The study of the inhibition type (competitive, uncompetitive, non-competitive or mixed) of the tested flavonoids was performed using the nonlinear regression Michaelis–Menten enzyme kinetics and the corresponding Lineweaver–Burk double reciprocal plots for each concentration of the inhibitor and substrate. The Ki values were calculated with GraphPad Software 6.0 by plotting the reciprocal of maximum velocity (1/V max) (y axis) against the flavonoid concentrations (x axis) (Table 2)[38–40].
# The type of inhibition parameters were all calculated with GraphPad Software 6.0. The obtained results represent at least three independent experiments.
# [1] = target: T2, α-glucosidase from Saccharomyces cerevisiae (Saccharomyces cerevisiae, UniProt P53341); test: biochemical
# T2 construct: purchased Sigma-Aldrich Co. LLC (St. Louis, MO)
# Experimental: Compounds A1, A2, A3, A4, A5, A6, B1, B2, B3, B4, C1, C2, C3, C4, C5, C6, C8, C9, D1 (chrysin), D2 (galangin) and D5 were obtained from Indofine Chemical Company, Inc. (Hillsborough, NJ). The flavonoids C7, C10, C11, C12, C13, D10, D11, D12, D13, D14 and D17 were synthesised as previously described. For the enzymatic assays, flavonoids were dissolved in DMSO (the final concentration of DMSO in the reactional mixture was 4.76%).
# The α-glucosidase activity was measured using a method of Tadera et al.[31] slightly modified. The assay was carried out by monitoring the α-glucosidase-mediated transformation of the substrate pNPG into α-D-glucose and p-nitrophenol, at 405 nm. Briefly, in a 96-well plate, the enzyme (0.05 U/mL), dissolved in 100 mM phosphate buffer (pH 6.8), was pre-incubated at 37 °C for 5 min with the flavonoids (0–200 μM). In sequence, pNPG was added (600 μM) and incubated in the reaction mixture at 37 °C for 30 min. The enzymatic reaction was monitored spectrophotometrically, in a microplate reader (Synergy HT, BIO-TEK), by measuring the absorbance at 405 nm. The obtained values correspond to the slope measured between 5 and 20 min. […] The obtained results represent at least three independent experiments.
# [2] = read-out: Inhibitory activity at the highest tested concentration
# [3] = enzyme 0.05 U/mL, pNPG 600 μM, pH 6.8, 37 °C, mean ± SEM, read-out: IC50
# [4] = mean ± SEM, from 1/Vmax vs flavonoid concentration, read-out: Ki
# T2 sequence (P53341 whole entry): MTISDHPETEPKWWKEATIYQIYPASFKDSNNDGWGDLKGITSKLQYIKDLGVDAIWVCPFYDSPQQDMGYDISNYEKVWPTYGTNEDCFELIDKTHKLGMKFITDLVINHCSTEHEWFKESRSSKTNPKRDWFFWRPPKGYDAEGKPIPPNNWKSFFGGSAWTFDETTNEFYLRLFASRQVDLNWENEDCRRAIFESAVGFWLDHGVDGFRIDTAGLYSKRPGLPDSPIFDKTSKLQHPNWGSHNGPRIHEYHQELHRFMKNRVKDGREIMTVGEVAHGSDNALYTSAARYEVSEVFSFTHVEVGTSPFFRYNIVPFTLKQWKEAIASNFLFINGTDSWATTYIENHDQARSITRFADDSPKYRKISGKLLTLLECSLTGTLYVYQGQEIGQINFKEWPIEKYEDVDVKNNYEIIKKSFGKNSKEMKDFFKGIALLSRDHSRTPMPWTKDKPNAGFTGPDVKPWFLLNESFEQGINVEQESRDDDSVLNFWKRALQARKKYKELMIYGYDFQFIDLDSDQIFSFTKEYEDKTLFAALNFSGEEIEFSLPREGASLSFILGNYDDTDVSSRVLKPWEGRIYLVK
# T1 sequence (P53341 whole entry): as above
structure (smiles),measurement,setting,value
"C[C@H]1O[C@H](O[C@H]2[C@H](O)[C@@H](O)[C@@H](O[C@H]3[C@H](O)[C@@H](O)C(O)O[C@@H]3CO)O[C@@H]2CO)[C@H](O)[C@@H](O)[C@@H]1N[C@H]1C=C(CO)[C@@H](O)[C@H](O)[C@H]1O (stereo partly drawn) [Acarbose, reference compound]",Type of inhibition,"α-glucosidase; ref Kim et al. 68, Lopez et al. 69",competitive
same,Type of inhibition,α-glucosidase; ref Son et al. 70,mixed type of inhibition
same,Type of inhibition,yeast α-glucosidase,Competitive
"O=c1cc(-c2ccccc2)oc2ccccc12 [Compound A1, Flavone]",Inhibitory activity against α-glucosidase (in words),[1],not able to inhibit α-glucosidase
same,inhibition at 200 µM,[1]; [2],< 20%
O=c1cc(-c2cccc(O)c2)oc2ccccc12 [Compound A2],Inhibitory activity against α-glucosidase (in words),[1],low or no inhibitory activity
same,inhibition at 200 µM,[1]; [2],< 20%
O=c1cc(-c2ccc(O)cc2)oc2ccccc12 [Compound A3],Inhibitory activity against α-glucosidase (in words),[1],low or no inhibitory activity
same,inhibition at 200 µM,[1]; [2],< 20%
O=c1cc(-c2ccc(O)c(O)c2)oc2ccccc12 [Compound A4],Inhibitory activity against α-glucosidase (in words),[1],low or no inhibitory activity
same,inhibition at 200 µM,[1]; [2],32 ± 4%
O=c1c(O)c(-c2ccc(O)c(O)c2)oc2ccccc12 [Compound A5],IC50,[1]; [3],54 ± 3 µM
same,Ki,yeast α-glucosidase,41 ± 7 µM
same,Type of inhibition,yeast α-glucosidase,Mixed
COc1ccc(-c2oc3ccccc3c(=O)c2O)cc1OC [Compound A6],IC50,[1]; [3],> 100 µM
same,inhibition at 100 µM,[1]; [2],< 20%
O=c1cc(-c2ccccc2)oc2cccc(O)c12 [Compound B1],Activity against α-glucosidase catalytic activity,α-glucosidase,no activity
same,inhibition at 200 µM,[1]; [2],< 20%
O=c1cc(-c2cccc(O)c2)oc2cccc(O)c12 [Compound B2],inhibition at 200 µM,[1]; [2],31 ± 4%
O=c1cc(-c2ccc(O)cc2)oc2cccc(O)c12 [Compound B3],IC50,[1]; [3],66 ± 2 µM
same,Ki,yeast α-glucosidase,127 ± 9 µM
same,Type of inhibition,yeast α-glucosidase,Mixed
O=c1cc(-c2ccc(O)c(O)c2)oc2cccc(O)c12 [Compound B4],IC50,[1],66 ± 7 µM
O=c1cc(-c2ccccc2)oc2cc(O)ccc12 [Compound C1],Activity against α-glucosidase catalytic activity,α-glucosidase,no activity
same,IC50,[1],> 200 µM
same,inhibition at 200 µM,[1]; [2],< 20%
O=c1cc(-c2cccc(O)c2)oc2cc(O)ccc12 [Compound C2],IC50,[1]; [3],53 ± 4 µM
O=c1cc(-c2ccc(O)cc2)oc2cc(O)ccc12 [Compound C3],IC50,[1]; [3],~200 µM
O=c1c(O)c(-c2cccc(O)c2)oc2cc(O)ccc12 [Compound C4],IC50,[1]; [3],42 ± 4 µM
O=c1c(O)c(-c2ccc(O)cc2)oc2cc(O)ccc12 [Compound C5],IC50,[1]; [3],96 ± 10 µM
O=c1cc(-c2ccc(O)c(O)c2)oc2cc(O)ccc12 [Compound C6],IC50,[1]; [3],95 ± 7 µM
O=c1c(O)c(-c2ccc(O)c(O)c2)oc2c(O)c(O)ccc12 [Compound C7],IC50,[1]; [3],7.6 ± 0.4 µM
same,Ki,yeast α-glucosidase,6.5 ± 0.2 µM
same,Type of inhibition,yeast α-glucosidase,Competitive
COc1cccc(-c2oc3cc(OC)ccc3c(=O)c2O)c1 [Compound C8],inhibition at 100 µM,[1]; [2],22 ± 2%
COc1ccc(-c2oc3cc(OC)ccc3c(=O)c2O)cc1 [Compound C9],inhibition at 200 µM,[1]; [2],< 20%
COc1ccc2c(=O)c(O)c(-c3ccc(O)c(O)c3)oc2c1OC [Compound C10],IC50,[1],86 ± 6 µM
COc1ccc(-c2oc3c(O)c(O)ccc3c(=O)c2O)cc1OC [Compound C11],inhibition at 200 µM,[1]; [2],31 ± 3%
COc1ccc2c(=O)c(O)c(-c3ccc(OCc4ccccc4)c(OCc4ccccc4)c3)oc2c1OC [Compound C12],inhibition at 200 µM,[1]; [2],< 20%
COc1ccc(-c2oc3c(OCc4ccccc4)c(OCc4ccccc4)ccc3c(=O)c2O)cc1OC [Compound C13],inhibition at 200 µM,[1]; [2],32 ± 3%
"O=c1cc(-c2ccccc2)oc2cc(O)cc(O)c12 [Compound D1, Chrysin]",Inhibitory activity against α-glucosidase (in words),[1],no inhibitory effect
same,inhibition at 50 µM,[1]; [2],< 20%
"O=c1c(O)c(-c2ccccc2)oc2cc(O)cc(O)c12 [Compound D2, Galangin]",inhibition at 200 µM,[1]; [2],21 ± 3%
"O=c1cc(-c2ccccc2)oc2cc(O)c(O)c(O)c12 [Compound D3, Baicalein]",IC50,[1]; [3],44 ± 3 µM
O=c1cc(-c2cccc(O)c2)oc2cc(O)cc(O)c12 [Compound D4],IC50,[1],89 ± 3 µM
"O=c1cc(-c2ccc(O)cc2)oc2cc(O)cc(O)c12 [Compound D5, Apigenin]",IC50,[1],82 ± 6 µM
"O=c1cc(-c2ccc(O)c(O)c2)oc2cc(O)cc(O)c12 [Compound D7, Luteolin]",IC50,[1]; [3],46 ± 6 µM
"O=c1c(O)c(-c2ccc(O)c(O)c2)oc2cc(O)cc(O)c12 [Compound D8, Quercetin]",Type of inhibition,α-glucosidase,mixed type inhibitor
same,Type of inhibition,yeast α-glucosidase,Competitive
"O=c1c(O)c(-c2ccc(O)cc2O)oc2cc(O)cc(O)c12 [Compound D9, Morin]",IC50,[1],32 ± 2 µM
O=c1c(Cl)c(-c2ccc(O)c(O)c2)oc2cc(O)cc(O)c12 [Compound D10],IC50,[1],21 ± 2 µM
same,Ki,yeast α-glucosidase; [4],51 ± 6 µM
same,Type of inhibition,yeast α-glucosidase,Non-competitive
O=c1cc(-c2ccc(O)c(O)c2)oc2cc(O)c(Cl)c(O)c12 [Compound D11],IC50,[1]; [3],~200 µM
O=c1cc(-c2ccc(O)c(O)c2)oc2c(Cl)c(O)cc(O)c12 [Compound D12],IC50,[1],55 ± 2 µM
O=c1c(Cl)c(-c2ccc(O)c(O)c2)oc2c(Cl)c(O)cc(O)c12 [Compound D13],IC50,[1],43 ± 3 µM
O=c1cc(-c2ccc(O)c(O)c2)oc2c(Cl)c(O)c(Cl)c(O)c12 [Compound D14],IC50,[1],34 ± 3 µM
"COc1ccc(-c2cc(=O)c3c(O)cc(O)cc3o2)cc1 [Compound D16, Acacetin]",IC50,[1]; [3],~200 µM
COc1ccc(-c2cc(=O)c3c(O)cc(O)cc3o2)cc1OC [Compound D17],inhibition at 200 µM,[1]; [2],< 20%
"C[C@@H]1O[C@@H](OC[C@H]2O[C@@H](Oc3c(-c4ccc(O)c(O)c4)oc4cc(O)cc(O)c4c3=O)[C@H](O)[C@@H](O)[C@@H]2O)[C@H](O)[C@H](O)[C@H]1O [Compound D18, Rutin]",Inhibitory activity against α-glucosidase (in words),[1],low activity
same,inhibition at 200 µM,[1]; [2],< 20%
"O=C1C[C@@H](c2ccc(O)cc2)Oc2cc(O)cc(O)c21 [Compound E1, Naringenin]",inhibition at 200 µM,[1]; [2],45 ± 3%
"O=C1C[C@@H](c2ccc(O)c(O)c2)Oc2cc(O)cc(O)c21 [Compound E2, Eriodictyol]",inhibition at 200 µM,[1]; [2],35 ± 4%
"O=C1c2c(O)cc(O)cc2OC(c2ccc(O)c(O)c2)C1O (stereo not drawn) [Compound E3, Taxifolin]",IC50,[1],~200 µM
same,Ki,yeast α-glucosidase; [4],347 ± 15 µM
same,Type of inhibition,yeast α-glucosidase,Non-competitive
